Test results from patent US20210040062A1, “AZOLE-SUBSTITUTED PYRIDINE COMPOUND” (TAISHO PHARMACEUTICAL CO., LTD., priority 2016, published 2021).

What was measured:
human CYP4F2 = molecular target: T1, human CYP4F2 (Homo sapiens, UniProt P78329); experiment: CYP4F2 inhibition test (Test Example 1); format: biochemical; details: Escherichia coli membrane fraction expressing human CYP4F2, 2.5 μM luciferine derivative, room temperature 60 minutes, luminescence
T1 construct: host or cells: Escherichia coli (membrane fraction)
T1 sequence (P78329 5-520): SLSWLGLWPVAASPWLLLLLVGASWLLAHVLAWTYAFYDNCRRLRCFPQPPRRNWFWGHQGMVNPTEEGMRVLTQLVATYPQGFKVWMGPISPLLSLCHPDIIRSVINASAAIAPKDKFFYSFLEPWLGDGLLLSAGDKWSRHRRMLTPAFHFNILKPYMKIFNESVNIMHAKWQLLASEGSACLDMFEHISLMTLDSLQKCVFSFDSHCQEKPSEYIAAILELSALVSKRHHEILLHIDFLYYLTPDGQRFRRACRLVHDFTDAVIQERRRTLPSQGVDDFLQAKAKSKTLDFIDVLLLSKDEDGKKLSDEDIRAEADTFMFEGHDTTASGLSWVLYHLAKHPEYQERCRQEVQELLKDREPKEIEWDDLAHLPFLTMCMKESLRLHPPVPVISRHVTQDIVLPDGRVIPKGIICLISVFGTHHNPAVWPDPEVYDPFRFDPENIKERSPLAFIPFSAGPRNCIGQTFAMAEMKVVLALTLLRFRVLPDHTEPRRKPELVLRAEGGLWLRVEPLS
Description: (§1) (1) Inhibition Test for Each Compound of the Present Invention Against 20-HETE Producing Enzymes (CYP4F2 and CYP4A11)
(§2) In the CYP4F2 inhibition test, the reaction solution containing each compound [final concentration of 50 mM, KPO4 (pH 7.4), 2.5 μM, luciferine derivative and 1 mM NADPH] was added to an Escherichia coli membrane fraction (100 μg/mL, protein) in which human CYP4F2 had been expressed. In the CYP4A11 inhibition test, the reaction solution containing each compound [final concentration of 100 mM, Tris-HCl (pH 7.5), 60 μM, luciferine derivative, 1.3 mM NADP^+, 3.3 mM Glucose 6-Phosphate, 3.3 mM MgCl2 and 0.4 U/mL Glucose 6-Phosphate dehydrogenase] was added to an Escherichia coli membrane fraction (100 μg/mL, protein) in which human CYP4A11 had been expressed. Following this, the membrane fraction was left to stand at room temperature for 60 minutes to perform an enzymatic reaction. After the reaction, a luciferine detection reagent was added, and the luminescence value was measured using a plate reader.
(§3) A: Luminescence value with addition of compound
(§4) B: Luminescence value without addition of compound and enzyme
(§5) C: Luminescence value without addition of compound

human CYP4A11 = molecular target: T2, human CYP4A11 (Homo sapiens, UniProt Q02928); experiment: CYP4A11 inhibition test (Test Example 1); format: biochemical; details: Escherichia coli membrane fraction expressing human CYP4A11, 60 μM luciferine derivative, room temperature 60 minutes, luminescence
T2 construct: host or cells: Escherichia coli (membrane fraction)
T2 sequence (Q02928 5-519): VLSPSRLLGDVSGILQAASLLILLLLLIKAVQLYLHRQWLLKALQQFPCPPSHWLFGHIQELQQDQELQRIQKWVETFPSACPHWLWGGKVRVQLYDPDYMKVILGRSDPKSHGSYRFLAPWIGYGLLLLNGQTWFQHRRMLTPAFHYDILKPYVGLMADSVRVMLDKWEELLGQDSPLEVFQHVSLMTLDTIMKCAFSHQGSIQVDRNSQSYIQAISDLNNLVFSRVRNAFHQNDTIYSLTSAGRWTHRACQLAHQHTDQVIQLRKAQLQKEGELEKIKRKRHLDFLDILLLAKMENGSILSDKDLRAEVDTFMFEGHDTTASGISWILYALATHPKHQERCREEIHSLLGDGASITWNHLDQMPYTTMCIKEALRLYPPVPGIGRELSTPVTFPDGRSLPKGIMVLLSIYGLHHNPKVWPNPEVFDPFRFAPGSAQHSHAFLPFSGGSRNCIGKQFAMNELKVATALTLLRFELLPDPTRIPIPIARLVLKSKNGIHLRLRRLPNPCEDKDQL
Description: as §1, §2, §3, §4, §5

SMILES	IC50 (human CYP4F2) [µM]	IC50 (human CYP4A11) [µM]
O=C(c1cc(CO)ccn1)N1CCC[C@@H](COc2ccc(-c3ccn[nH]3)nc2)C1 [Example 3-27]	0.7	0.31
CC(C)OC(=O)N1CCC(COc2ccc(-c3ccn[nH]3)nc2)CC1 [Example 1-4]	0.12	0.51
CC(C)OC(=O)NCCC(=O)N1CCC[C@@H](COc2ccc(-c3ccn[nH]3)nc2)C1 [Example 1-32]	0.027	0.067
CS(=O)(=O)CC(=O)N1CCC[C@@H](COc2ccc(-c3ccn[nH]3)nc2)C1 [Example 3-4]	4.2	0.5
CCOC(=O)NCCC(=O)N1CCC[C@@H](COc2ccc(-c3ccn[nH]3)nc2)C1 [Example 1-33]	0.054	0.083
CC(C)(C)OC(=O)N1CC(C(=O)N2CCC[C@@H](COc3ccc(-c4ccn[nH]4)nc3)C2)C1 [Example 3-46]	0.023	0.29
O=C(N1CCC(COc2ccc(-c3ccn[nH]3)nc2)CC1)C1(O)CC1 [Example 2-10]	0.4	1.1
O=C(C1CC(F)(F)C1)N1CCC(COc2ccc(-c3ccn[nH]3)nc2)CC1 [Example 2-4]	0.094	1.1
CC1(C(=O)N2CCC(COc3ccc(-c4ccn[nH]4)nc3)CC2)COC1 [Example 2-5]	0.81	1.6
NC(=O)NCCCC(=O)N1CCC[C@@H](COc2ccc(-c3ccn[nH]3)nc2)C1 [Example 3-21]	0.72	0.8
O=C(NCCC(=O)N1CCC[C@@H](COc2ccc(-c3ccn[nH]3)nc2)C1)c1ccccc1 [Example 3-45]	0.024	0.07
C[C@@H](CNC(=O)OC(C)(C)C)C(=O)N1CCC[C@@H](COc2ccc(-c3ccn[nH]3)nc2)C1 [Example 2-13]	0.073	0.1
CC(C)C(=O)N1CCC[C@H](COc2ccc(-c3ccn[nH]3)nc2)C1 [Example 1-12]	0.021	0.33
O=C(CC(=O)N1CCC[C@@H](COc2ccc(-c3ccn[nH]3)nc2)C1)N1CCCC1 [Example 2-16]	3.6	7.6
COC(=O)N1CCC[C@H](COc2ccc(-c3ccn[nH]3)nc2)C1 [Example 1-13]	0.05	0.31

Other lines, results leading:

IC50 (human CYP4F2) [µM]	IC50 (human CYP4A11) [µM]	SMILES
0.02	1.1	COc1ccc(COc2ccc(-c3ccn[nH]3)nc2)cc1S(C)(=O)=O [Example 25-10]
0.22	0.031	CS(=O)(=O)c1cccc(COc2ccc(-n3cncn3)nc2)c1 [Example 45-4]
0.71	0.038	CS(=O)(=O)N1CCC[C@@H](COc2ccc(-c3ccn[nH]3)nc2)C1 [Example 10-2]
0.093	0.027	CCS(=O)(=O)c1cccc(COc2ccc(-c3ccn[nH]3)nc2)c1 [Example 18-6]
0.1	0.032	O=S(=O)(C1CC1)N1CCC[C@@H](COc2ccc(-c3ccn[nH]3)nc2)C1 [Example 10-3]
3.5	0.42	O=S1(=O)CCCC(CCOc2ccc(-c3cn[nH]c3)nc2)C1 (stereo not drawn) [Example 43-6]
0.17	0.41	CC(=O)N[C@H]1CC[C@@H](COc2ccc(-c3ccn[nH]3)nc2)CC1 [Example 14-1, N-[cis-4-({[6-(1H-Pyrazol-5-yl)pyridin-3-yl]oxy}methyl)cyclohexyl] acetamide]
2	0.033	CS(=O)(=O)N1CCC[C@H](COc2ccc(-c3cn[nH]c3)nc2)C1 [Example 46-3]
3.1	4.8	CC(=O)N1CCC(COc2ccc(-c3c[nH]nn3)nc2)CC1 [Example 43-1, 1-(4-{[6-(1H-Triazol-4-yl)pyridin-3-yl]oxymethyl}piperidin-1-yl)ethanone]
0.11	0.045	CS(=O)(=O)c1cccc(COc2cnc(-c3ccn[nH]3)c(F)c2)c1 [Example 25-5]
0.14	1.7	CN(C)S(=O)(=O)c1ccc(COc2ccc(-c3ccn[nH]3)nc2)cc1 [Example 25-3, N,N-Dimethyl-4-{[6-(1H-pyrazol-5-yl)pyridin-3-yl]oxymethyl}benzenesulfonamide]
0.17	0.15	Clc1cn[nH]c1-c1ccc(OCCC2CCOCC2)cn1 [Example 23-6]
0.096	6	CS(=O)(=O)c1ccc(COc2ccc(-c3ccn[nH]3)nc2)cc1 [Example 25-18]
0.051	0.093	Cc1cn[nH]c1-c1ccc(OC[C@@H]2CCN(S(=O)(=O)C3CC3)C2)cn1 [Example 10-21]
0.098	0.041	Cc1cn[nH]c1-c1ccc(OC[C@@H]2CCN(S(=O)(=O)N(C)C)C2)cn1 [Example 10-20]
0.045	0.021	Cc1cn[nH]c1-c1ccc(OC[C@@H]2CCCN(S(=O)(=O)C3CC3)C2)cn1 [Example 10-16]
1.5	0.34	CS(=O)(=O)c1cccc(COc2ccc(-c3ncn[nH]3)nc2)c1 [Example 46-2]

IC50 (human CYP4F2) [µM]	IC50 (human CYP4A11) [µM]	SMILES
0.0037	0.022	O=S(=O)(N1CCCCC1)N1CCC[C@H](COc2ccc(-c3ccn[nH]3)nc2)C1 [Example 10-11]
0.02	0.056	O=C(NCCC(=O)N1CCC[C@@H](COc2ccc(-c3ccn[nH]3)nc2)C1)C1CCCC1 [Example 4-10]
0.073	0.024	CN(C)S(=O)(=O)N1CCC[C@@H](COc2ccc(-c3ccn[nH]3)nc2)C1 [Example 10-5]
0.015	0.39	N#Cc1cccc(COc2ccc(-c3ccn[nH]3)nc2)c1 [54-19]
0.86	1.3	CS(=O)(=O)c1cncc(COc2ccc(-c3ccn[nH]3)nc2)c1 [Example 13-17]
0.093	0.37	O=C(NCCC(=O)N1CCC[C@@H](COc2ccc(-c3ccn[nH]3)nc2)C1)C1CCOCC1 [Example 4-5]
0.31	0.079	CS(=O)(=O)c1cc(F)cc(COc2ccc(-c3ccn[nH]3)nc2)c1 [Example 16-5]
0.038	0.019	O=S(=O)(C1CC1)N1CCC[C@@H](COc2cnc(-c3ccn[nH]3)c(F)c2)C1 [Example 10-17]
0.061	0.052	Clc1cn[nH]c1-c1ccc(OCC2CCOCC2)cn1 [Example 23-5]
1.6	0.52	CS(=O)(=O)c1cccc(COc2ccc(-c3cnsc3)nc2)c1 [Example 41-3]
0.049	6.5	CC(=O)N1CC[C@@H](CCOc2ccc(-c3ccn[nH]3)nc2)C1 [Example 13-8]
7.5	3.9	CS(=O)(=O)c1cccc(COc2ccc(-c3[nH]ncc3C(F)F)nc2)c1 [Example 46-1, 2-[4-(Difluoromethyl)-1H-pyrazol-5-yl]-5-[(3-methylsulfonylphenyl)methoxy]pyridine]
0.095	0.23	CC(C)(C)OC(=O)Nc1cccc(COc2ccc(-c3ccn[nH]3)nc2)c1 [Example 18-7]
33	20	CS(=O)(=O)c1cccc(COc2ccc(-c3[nH]ncc3C(N)=O)nc2)c1 [Example 48-1, 5-{5-[(3-Methylsulfonylphenyl)methoxy]pyridin-2-yl}-1H-pyrazole-4-carboxamide]
0.44	6.3	CC(C)(C)c1ccc(COc2ccc(-c3ccn[nH]3)nc2)cc1 [54-15]
0.012	0.024	O=S(=O)(N1CCCC1)N1CCC[C@@H](COc2ccc(-c3ccn[nH]3)nc2)C1 [Example 11-2]
